Results published in patent publication US20240051956A1, “SOS1 INHIBITORS AND USES THEREOF” (QILU REGOR THERAPEUTICS INC., priority 2020, published 2024).

Key:
SOS1 and KRAS G12D = SOS1 and KRAS G12D (Homo sapiens (Human), UniProt Q07889); assay: KRAS::SOS1 AlphaScreen Binding Assay; details: SOS1 (564-1049), KRAS G12D (1-169), GDP
Source text: a. KRAS::SOS1 AlphaScreen Binding Assay
Low IC50 values of given compounds are indicative of high potency of the SOS1 inhibitor compounds in this assay setting.
• GST-TEV-SOS1 (564-1049) and His-TEV-Avi-KRAS G12D (1-169) are purchased from Viva Biotech (Shanghai) Ltd. • GDP (Sigma, Cat. G7127) • AlphaLISA Glutathione Acceptor Beads (PerkinElmer, Cat. AL109C) • AlphaScreen Streptavidin Donor Beads (PerkinElmer, Cat. 6760002S) • Assay plates: ProxiPlate-384 Plus, White 384-shallow well Microplate (PerkinElmer, Cat. 6008280)
SOS1 inhibitor compounds are diluted to a final start concentration of […]. Serial dilutions of compounds are made using Tecan D300e Digital Dispenser in 9 concentrations with serial 1:3 dilutions. 100 nL of compound solution is transferred to the 384-well assay plate per well, covering a range between 1 μM and 0.15 nM minimum in duplicate. 10 nM (final assay concentration) KRAS G12D, 5 nM (final assay concentration) SOS1 and 10 μM (final assay concentration) GDP are mixed in assay buffer, and 5 μL of KRAS::SOS1 GDP mix is added into the assay plate to the 100 nL of compound solution (final dilution in the assay 1:100, final DMSO concentration 1%). After a 30 min incubation, AlphaLISA Glutathione Acceptor Beads and AlphaScreen Streptavidin Donor Beads are mixed in assay buffer at a concentration of 5 µg/mL (final assay concentration), and 5 μL of bead mix is added into the assay plate. Plates are kept at room temperature in a darkened incubator for 3 h. After a 3 h incubation, the signal is determined using Envision (PerkinElmer). The excitation wavelength is 680 nm, and emission 615 nm. IC50 values are calculated and analyzed using GraphPad Prism.

NCI-H358 = assay: Cell proliferation assay, 3D, CellTiter-Glo 3D; format: cell-based, human; details: Homo sapiens, 72 h; NCI-H358 (KRAS G12C), 3D ultra-low attachment, 3 days; read-out: anit-prolif. H358 IC50
Method: b. Cell Proliferation Assay
Low IC50 values are indicative of high potency of the compounds in this assay setting.
Cell proliferation assay is performed in three-dimensional (3D) ultra-low conditions with the human cell line NCI-H358, a human non-small cell lung cancer (NSCLC) cell line with a KRAS G12C mutation.
• 96-well Clear Round Bottom Ultra-Low Attachment Microplate (Corning, Cat. 7007) • 96-well Flat Clear Bottom White Polystyrene TC-treated Microplates (Corning, Cat. 3610) • RPMI-1640 Medium (Gibco, Cat. 22400105) • Fetal Bovine Serum (FBS) (Gibco, Cat. 10099141C) • 0.25% Trypsin-EDTA (Gibco, Cat. 25200056) • Penicillin-Streptomycin (Gibco, Cat. 15140122) • CellTiter-Glo 3D Cell Viability Assay (Promega, Cat. G9683)
NCI-H358 cells (ATCC, Cat. CRL-5807) are grown in cell culture flasks using RPMI medium supplemented with 10% FBS. Cells are incubated at 37° C. and 5% C02 in a humidified atmosphere, with sub-cultivation performed twice a week. Cells are trypsinized, counted and plated in 96-well ultra-low adhesion plates for 3D cell viability determination. The day after plating, serial dilutions of SOS1 inhibitor compounds are made using Tecan D300e Digital Dispenser to evaluate a concentration-dependent effect on cell viability. The concentration of the test compounds covers a range between 5 μM and 0.76 nM with serial 1:3 dilutions in 9 concentrations. 0.5 μL serial dilutions of the compounds are added in duplicates. 3 days later, the CellTiter-Glo 3D Cell Viability Assay is used to measure cell viability effects of SOS1 inhibitor compounds in 3D format. Luminescent intensity is determined using Envision (PerkinElmer). Data is analyzed and IC50 values are calculated using GraphPad Prism.

SOS1 and KRAS G12D, sequence (Q07889 564-1049, stated change not applied): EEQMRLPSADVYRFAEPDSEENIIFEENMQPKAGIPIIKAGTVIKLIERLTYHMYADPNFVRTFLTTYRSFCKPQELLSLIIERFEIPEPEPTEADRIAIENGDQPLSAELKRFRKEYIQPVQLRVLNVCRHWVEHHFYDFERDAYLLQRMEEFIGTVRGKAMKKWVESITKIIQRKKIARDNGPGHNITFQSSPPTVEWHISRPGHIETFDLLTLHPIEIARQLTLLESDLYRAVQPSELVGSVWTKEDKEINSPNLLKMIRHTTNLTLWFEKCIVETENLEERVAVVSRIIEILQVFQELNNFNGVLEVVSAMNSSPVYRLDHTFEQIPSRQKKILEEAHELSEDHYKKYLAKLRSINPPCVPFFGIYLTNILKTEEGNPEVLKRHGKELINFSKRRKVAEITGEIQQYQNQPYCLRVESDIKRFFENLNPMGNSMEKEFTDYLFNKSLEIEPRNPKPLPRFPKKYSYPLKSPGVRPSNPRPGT

Structure (SMILES)	IC50 (SOS1 and KRAS G12D) [nM]	IC50 (NCI-H358) [nM]
Cc1nc(N[C@H](C)c2cccc(C(F)F)c2F)c2cn(N3CCOCC3)c(=O)c(C#N)c2n1 [Example 41, 4-[[(1R)-1-[3-(difluoromethyl)-2-fluoro-phenyl]ethyl]amino]-2-methyl-6-morpholino-7-oxo-pyrido[4,3-d]pyrimidine-8-carbonitrile]	15 to 150	100 to 500
Cc1nc(N[C@H](C)c2cccc(C(F)F)c2F)c2cn(N3CCOCC3)c(=O)c(-c3ccc(C#N)nc3)c2n1 [Example 75, (R)-5-(4-((1-(3-(difluoromethyl)-2-fluorophenyl)ethyl)amino)-2-methyl-6-morpholino-7-oxo-6,7-dihydropyrido[4,3-]pyrimidin-8-yl)picolinonitrile]	≤ 15	≤ 100
Cc1nc(N[C@H](C)c2cccc(C(F)F)c2F)c2cn(N3CCOCC3)c(=O)c(-c3ccc4nccn4c3)c2n1 [Example 73]	≤ 15	≤ 100
Cc1nc(N[C@H](C)c2cccc(C(F)F)c2F)c2cn(N3CCOCC3)c(=O)c(-c3cnn(C)c3)c2n1 [Example 70]	≤ 15	100 to 500
Cc1nc(N[C@H](C)c2cccc(C(F)F)c2F)c2cn(-n3ccnc3)c(=O)c(F)c2n1 [Example 86]	15 to 150	500 to 1000
Cc1nc(N[C@H](C)c2cccc(C(F)F)c2F)c2cn(N3CCOCC3)c(=O)c(-c3ccc(C#N)cc3)c2n1 [Example 57]	≤ 15	≤ 100
Cc1nc(N[C@H](C)c2cccc(C(F)F)c2F)c2cn(N3CCOCC3)c(=O)c(C3=CCN(S(C)(=O)=O)CC3)c2n1 [Example 55]	≤ 15	100 to 500
Cc1nc(N[C@H](C)c2cccc(C(F)(F)F)c2)c2cn(N3CCOCC3)c(=O)cc2n1 [Example 20]	≤ 15	≤ 100
Cc1nc(N[C@H](C)c2cccc(C(F)F)c2F)c2cn(N3CCCCC3)c(=O)cc2n1 [Example 2]	≤ 15	≤ 100
Cc1nc(N[C@H](C)c2cccc(C(F)F)c2F)c2cn(N3CC4CC3CO4)c(=O)cc2n1 (stereo partly drawn) [Example 8]	≤ 15	100 to 500
Cc1nc(N[C@@H](C)c2cccc(C(F)F)c2C)c2cn(N3CCOCC3)c(=O)cc2n1 [Example 22]	150 to 1000	> 1000
CNCc1ccccc1-c1csc([C@@H](C)Nc2nc(C)nc3cc(=O)n(N4CCOCC4)cc23)c1 [Example 77, 2-methyl-4-[[(1R)-1-[4-[2-(methylaminomethyl)phenyl]-2-thienyl]ethyl]amino]-6-morpholino-pyrido[4,3-d]pyrimidin-7-one]	≤ 15	100 to 500
Cc1nc(N[C@H](C)c2cccc(C(F)F)c2F)c2cn(N3CCC(O)CC3)c(=O)cc2n1 [Example 37]	≤ 15	100 to 500
Cc1nc(N[C@H](C)c2cccc(C(F)F)c2F)c2cn(N3CCOCC3)c(=O)c(C3=CCOC3)c2n1 [Example 54]	≤ 15	100 to 500
Cc1nc(N[C@H](C)c2cccc(C(F)F)c2F)c2cn(N3CCOCC3)c(=O)c(-c3ccnc(C#N)c3)c2n1 [Example 68]	≤ 15	100 to 500
Cc1nc(N[C@H](C)c2cccc(C(F)F)c2F)c2cn(N3CCN(C(=O)OC(C)(C)C)CC3)c(=O)cc2n1 [Example 4]	15 to 150	100 to 500
CC(=O)N1CCN(n2cc3c(N[C@H](C)c4cccc(C(F)F)c4F)nc(C)nc3cc2=O)CC1 [Example 11, 6-(4-acetylpiperazin-1-yl)-4-[[(1R)-1-[3-(difluoromethyl)-2-fluoro-phenyl]ethyl]amino]-2-methyl-pyrido[4,3-d]pyrimidin-7-one]	≤ 15	500 to 1000
Cc1nc(N[C@H](C)c2cccc(C(F)F)c2F)c2cn(N3CCOCC3)c(=O)c(-c3ccncc3)c2n1 [Example 46]	≤ 15	≤ 100

Structure (SMILES)	IC50 (SOS1 and KRAS G12D) [nM]	IC50 (NCI-H358) [nM]
Cc1nc(N[C@H](C)c2cccc(C(F)F)c2F)c2cn(N3CCCC3)c(=O)cc2n1 [Example 35]	≤ 15	100 to 500
Cc1nc(N[C@H](C)c2cccc(C(F)F)c2F)c2cn(N3CCN(c4ccc(C#N)cn4)CC3)c(=O)cc2n1 [Example 15, 6-[4-[4-[[(1R)-1-[3-(difluoromethyl)-2-fluoro-phenyl]ethyl]amino]-2-methyl-7-oxo-pyrido[4,3-d]pyrimidin-6-yl]piperazin-1-yl]pyridine-3-carbonitrile]	15 to 150	≤ 100
Cc1nc(N[C@H](C)c2cccc(C(F)F)c2F)c2cn(N3CCNCC3)c(=O)cc2n1 [Example 10, 4-[[(1R)-1-[3-(difluoromethyl)-2-fluoro-phenyl]ethyl]amino]-2-methyl-6-piperazin-1-yl-pyrido[4,3-d]pyrimidin-7-one]	≤ 15	> 1000
C=C(C)c1c(=O)n(N2CCOCC2)cc2c(N[C@H](C)c3cccc(C(F)F)c3F)nc(C)nc12 [Example 56]	≤ 15	100 to 500
Cc1nc(N[C@H](C)c2cccc(C(F)F)c2F)c2cn(N3CCOC3=O)c(=O)cc2n1 [Example 39]	≤ 15	100 to 500
Cc1nc(N[C@H](C)c2cccc(C(F)F)c2F)c2cn(N3CCOCC3)c(=O)c(C)c2n1 [Example 44]	≤ 15	≤ 100
Cc1nc(N[C@H](C)c2cccc(C(F)F)c2F)c2cn(N3CCOCC3)c(=O)c(C3CC3)c2n1 [Example 42, 8-cyclopropyl-4-[[(1R)-1-[3-(difluoromethyl)-2-fluoro-phenyl]ethyl]amino]-2-methyl-6-morpholino-pyrido[4,3-d]pyrimidin-7-one]	≤ 15	100 to 500
COc1ccc(-c2c(=O)n(N3CCOCC3)cc3c(N[C@H](C)c4cccc(C(F)F)c4F)nc(C)nc23)cn1 [Example 58]	≤ 15	≤ 100
Cc1nc(N[C@H](C)c2cccc(C(F)F)c2F)c2cn(N3CCOCC3)c(=O)c(-c3cnc(C#N)c(F)c3)c2n1 [Example 67]	15 to 150	≤ 100
Cc1nc(N[C@H](C)c2cccc(C(F)F)c2F)c2cn(N3CCOCC3)c(=O)c(-c3ccc[nH]c3=O)c2n1 [Example 51]	≤ 15	> 1000
Cc1nc(N[C@H](C)c2cccc(C(F)F)c2F)c2cn(N3CCS(=O)(=O)CC3)c(=O)cc2n1 [Example 36]	≤ 15	100 to 500
Cc1nc(N[C@H](C)c2cccc(C(F)(F)F)c2F)c2cn(N3CCOCC3)c(=O)c(F)c2n1 [Example 31]	≤ 15	≤ 100
Cc1nc(N[C@H](C)c2cccc(C(F)F)c2F)c2cn(N3CCOCC3)c(=O)c(-c3ccc(P(C)(C)=O)nc3)c2n1 [Example 71]	≤ 15	100 to 500
COC1CCN(n2cc3c(N[C@H](C)c4cccc(C(F)F)c4F)nc(C)nc3cc2=O)CC1 [Example 7]	≤ 15	100 to 500
CCC(Nc1nc(C)nc2cc(=O)n(N3CCOCC3)cc12)c1cccc(C(F)(F)F)c1 (stereo not drawn) [Example 24]	15 to 150	100 to 500
Cc1nc(N[C@H](C)c2cccc(C(F)F)c2F)c2cn(N3CCOCC3)c(=O)c(-c3ccc(C#N)c(F)c3)c2n1 [Example 62]	15 to 150	100 to 500
Cc1nc(N[C@H](C)c2cccc(C(F)F)c2F)c2cn(N3CCOCC3)c(=O)c(-c3ccc(C(F)(F)F)nc3)c2n1 [Example 60]	15 to 150	≤ 100
Cc1nc(N[C@H](C)c2cccc(C(F)F)c2F)c2cn(N3CCOCC3)c(=O)c(-c3cn(CC(F)F)cn3)c2n1 [Example 69]	≤ 15	≤ 100
